According to patent US20070167452A1, “Therapeutic amide derivatives” (PFIZER, INC., priority 2004, published 2007):

Row | SMILES | melting point [°C]
1 | O=C1CCc2cc(C(=O)NC[C@H]3CC[C@@H](Cc4ccccc4)CC3)ccc2N1 [Example 118, N-[(cis-4-Benzylcyclohexyl)methyl]-2-oxo-1,2,3,4-tetrahydroquinoline-6-carboxamide] | 188.5
2 | O=C(NC[C@H]1CC[C@@H](CCOc2ccccc2)CC1)c1ccn[nH]1 [Example 85, N-{[cis-4-(2-Phenoxyethyl)cyclohexyl]methyl}-1H-pyrazole-5-carboxamide] | 130.5
3 | O=C(NC[C@H]1CC[C@@H](CCOc2ccccc2)CC1)c1c[nH]cn1 [Example 86, N-{[cis-4-(2-Phenoxyethyl)cyclohexyl]methyl}-1H-imidazole-4-carboxamide] | 169.6
4 | O=C(NC[C@H]1CC[C@@H](CCOc2ccccc2)CC1)c1cn[nH]c1 [Example 77, N-{[cis-4-(2-Phenoxyethyl)cyclohexyl]methyl}-1H-pyrazole-4-carboxamide] | 155.7
5 | O=C(NC[C@H]1CC[C@@H](CCOc2ccccc2)CC1)c1ccc(=O)[nH]n1 [Example 93, 6-Oxo-N-{[cis-4-(2-phenoxyethyl)cyclohexyl]methyl}-1,6-dihydropyridazine-3-carboxamide] | 177.5
6 | O=C(NC[C@H]1CC[C@@H](Cc2ccccc2)CC1)c1ccc2nc(O)ccc2c1 [Example 122, N-[(cis-4-Benzylcyclohexyl)methyl]-2-hydroxyquinoline-6-carboxamide] | 236.7
7 | Nc1n[nH]cc1C(=O)NC[C@H]1CC[C@@H](CCOc2ccccc2)CC1 [Example 102, 3-Amino-N-{[cis-4-(2-phenoxyethyl)cyclohexyl]methyl)-1H-pyrazole-4-carboxamide] | 129.3
8 | O=C(NC[C@H]1CC[C@@H](CCOc2ccccc2)CC1)c1cc[nH]c1 [Example 96, N-{[cis-4-(2-Phenoxyethyl)cyclohexyl]methyl}-1H-pyrrole-3-carboxamide] | 121
9 | O=C(NC[C@H]1CC[C@@H](COc2ccc(F)cc2)CC1)c1cn[nH]c1 [Example 109, N-({cis-4-[(4-Fluorophenoxy)methyl]cyclohexyl}methyl)-1H-pyrazole-4-carboxamide] | 147.1
10 | O=C(NC[C@H]1CC[C@@H](CCOc2ccccc2)CC1)c1c[nH]nn1 [Example 104, N-{[cis-4-(2-Phenoxyethyl)cyclohexyl]methyl}-1H-1,2,3-triazole-4-carboxamide] | 141.2
11 | O=C(NC[C@H]1CC[C@@H](CCOc2ccccc2)CC1)c1ccc2[nH]ncc2c1 [Example 103, N-{[cis-4-(2-Phenoxyethyl)cyclohexyl]methyl}-1H-indazole-5-carboxamide] | 144.5
12 | O=C(NC[C@H]1CC[C@@H](COc2ccccc2F)CC1)c1cn[nH]c1 [Example 100, N-({cis-4-[(2-Fluorophenoxy)methyl]cyclohexyl}methyl)-1H-pyrazole-4-carboxamide] | 139.8
13 | O=C(NC[C@H]1CC[C@@H](CCOc2ccccc2)CC1)c1ccc2[nH]c(=O)sc2c1 [Example 101, 2-Oxo-N-{[cis-4-(2-phenoxyethyl)cyclohexyl]methyl}-2,3-dihydro-1,3-benzothiazole-6-carboxamid] | 159.9
14 | O=C(NC[C@H]1CC[C@@H](Oc2ccc(F)cc2)CC1)c1ccc(O)c(F)c1 [Example 55, 3-Fluoro-N-{[cis-4-(4-fluorophenoxy)cyclohexyl]methyl}-4-hydroxybenzamide] | 149.5
15 | O=C(NC[C@H]1CC[C@@H](OCCc2ccccc2)CC1)c1cn[nH]c1 [Example 72, N-{[cis-4-(2-Phenylethoxy)cyclohexyl]methyl}-1H-pyrazole-4-carboxamide] | 145
16 | O=C(NC[C@H]1CC[C@@H](CCOc2ccccc2)CC1)c1ccc(O)nc1 [Example 84, 6-Hydroxy-N-{[cis-4-(2-phenoxyethyl)cyclohexyl]methyl}nicotinamide] | 167.6
17 | O=C(NC[C@H]1CC[C@@H](CCOc2ccccc2)CC1)c1ccnc(O)c1 [Example 83, 2-Hydroxy-N-{[cis-4-(2-phenoxyethyl)cyclohexyl]methyl}isonicotinamide] | 199.9

Results, then the compound that gave them:

Row | melting point [°C] | SMILES
18 | 170.5 | O=C(NC[C@H]1CC[C@@H](Oc2ccc(F)cc2)CC1)c1ccc(O)cc1 [Example 54, N-{[cis-4-(4-Fluorophenoxy)cyclohexyl]methyl}-4-hydroxybenzamide]
19 | 159 | O=C(NC[C@]1(O)CC[C@H](COc2ccccc2Cl)CC1)c1ccc(O)cc1 [Example 14, N-({trans-4-[(2-Chlorophenoxy)methyl]-1-hydroxycyclohexyl}methyl)-4-hydroxybenzamide]
20 | 168.7 | O=C(NC[C@]1(O)CC[C@H](CCOc2ccccc2)CC1)c1ccc(O)cc1 [Example 26, 4-Hydroxy-N-{[trans-1-hydroxy-4-(2-phenoxyethyl)cyclohexyl]methyl}benzamide]
21 | 122.1 | O=C(NC[C@]1(O)CC[C@H](OCc2ccc(F)cc2)CC1)c1ccc(O)cc1 [Example 47, N-({trans-4-[(4-Fluorobenzyl)oxy]-1-hydroxycyclohexyl}methyl)-4-hydroxybenzamide]
22 | 164.1 | O=C(NC[C@]1(O)CC[C@H](COCc2ccc(Cl)cc2)CC1)c1ccc(O)cc1 [Example 25, N-[(trans-4-{[(4-Chlorobenzyl)oxy]methyl}-1-hydroxycyclohexyl)methyl]-4-hydroxybenzamide]
23 | 189.5 | O=C(NC[C@]1(O)CC[C@H](COc2ccccc2)CC1)c1ccc(O)cc1 [Example 8, 4-Hydroxy-N-{[trans-1-hydroxy-4-(phenoxymethyl)cyclohexyl]methyl}benzamide]
24 | 190.3 | COc1cccc(OC[C@H]2CC[C@@](O)(CNC(=O)c3ccc(O)cc3)CC2)c1 [Example 20, 4-Hydroxy-N-({trans-1-hydroxy-4-[(3-methoxyphenoxy)methyl]cyclohexyl}methyl)benzamide]
25 | 184.7 | O=C(NC[C@]1(O)CC[C@H](CCOc2ccccc2F)CC1)c1ccc(O)c(F)c1 [Example 51, 3-Fluoro-N-({trans-4-[2-(2-fluorophenoxy)ethyl]-1-hydroxycyclohexyl}methyl)-4-hydroxybenzamide]
26 | 153.7 | O=C(NC[C@]1(O)CC[C@H](COc2c(F)cccc2F)CC1)c1ccc(O)cc1 [Example 12, N-({trans-4-[(2,6-Difluorophenoxy)methyl]-1-hydroxycyclohexyl}methyl)-4-hydroxybenzamide]
27 | 177.5 | O=C(NC[C@]1(O)CC[C@H](CCOc2ccc(F)cc2)CC1)c1ccc(O)cc1 [Example 29, N-({trans-4-[2-(4-Fluorophenoxy)ethyl]-1-hydroxycyclohexyl}methyl)-4-hydroxybenzamide]
28 | 196.6 | O=C(NC[C@]1(O)CC[C@@H](Oc2ccc(Cl)cc2)CC1)c1ccc(O)cc1 [Example 32, N-{[cis-4-(4-Chlorophenoxy)-1-hydroxycyclohexyl]methyl}-4-hydroxybenzamide]
29 | 189.8 | O=C(NC[C@H]1CC[C@@H](COc2ccccc2)CC1)c1ccc(O)nc1 [Example 82, 6-Hydroxy-N-{[cis-4-(phenoxymethyl)cyclohexyl]methyl}nicotinamide]
30 | 134.5 | O=C(NC[C@]1(O)CC[C@H](CCOc2cccc(F)c2)CC1)c1ccc(O)cc1 [Example 28, N-({trans-4-[2-(3-Fluorophenoxy)ethyl]-1-hydroxycyclohexyl}methyl)-4-hydroxybenzamide]
31 | 138.2 | O=C(NC[C@]1(O)CC[C@H](OCc2cccc(F)c2)CC1)c1ccc(O)c(F)c1 [Example 49]
32 | 178.9 | O=C(NC[C@]1(O)CC[C@H](CCOc2ccccc2F)CC1)c1ccc(O)cc1 [Example 27, N-({trans-4-[2-(2-Fluorophenoxy)ethyl]-1-hydroxycyclohexyl}methyl)-4-hydroxybenzamide]
